Legend:
[1] = molecular target: Cholecystokinin receptor type A (Homo sapiens) (UniProt P32238); experiment: Displacement of [125I]CCK-8s from human recombinant CCK1 receptor at 1 uM after 60 mins by scintillation counting analysis relative to control
[2] = molecular target: Histamine H1 receptor (Homo sapiens, UniProt P35367); experiment: Displacement of [3H]pyrilamine from human recombinant histamine H1 receptor at 1 uM after 60 mins by scintillation counting analysis relative to control
[3] = AUC (0 to infinity) in Sprague-Dawley rat at 1 mg/kg, iv; assay type: ADME, organism-based; parameters: dose 1 mg/kg, time infinity, route intravenous; settings: in vivo
[4] = molecular target: Serine/threonine-protein kinase pim-2 (Homo sapiens) (UniProt Q9P1W9); experiment: Inhibition of recombinant full length GST-tagged human PIM2 expressed in baculovirus expression system at 10 uM in presence of ATP relative to control
[5] = molecular target: Neuromedin-K receptor (Homo sapiens, UniProt P29371); experiment: Displacement of [3H]SR 142801 from human recombinant NK3 receptor after 120 mins by scintillation counting analysis
[6] = molecular target: Neurotensin receptor type 1 (Homo sapiens, UniProt P30989); experiment: Displacement of [125I]Tyr3-neurotensin from human recombinant NTS1 receptor at 10 uM after 120 mins by scintillation counting analysis relative to control
[7] = molecular target: Inhibitor of nuclear factor kappa-B kinase subunit beta (Homo sapiens) (UniProt O14920); experiment: Inhibition of recombinant full length GST-tagged human IKKbeta expressed in baculovirus expression system at 10 uM in presence of ATP relative to control
[8] = molecular target: T1, Adrenergic receptor alpha-2 (Rattus norvegicus) (UniProt P22086+P19328+P22909); experiment: Displacement of [3H]-RX 821002 from rat alpha2 adrenoceptor at 1 uM after 60 mins by scintillation counting analysis relative to control; assay type: protein assay
[9] = Thermodynamic solubility of the compound in 30 mM phosphate buffer at 10 mM at pH 2 after 2 to 5 days by UV-HPLC analysis; assay type: physicochemical; settings: read-out: Therm_solubility
[10] = molecular target: T2, Adenosine receptor A2a (Homo sapiens, UniProt P29274); experiment: Displacement of [3H]-CGS 21680 from human recombinant adenosine A2A receptor at 10 uM after 120 mins by scintillation counting analysis relative to control
[11] = molecular target: Somatostatin receptor; experiment: Displacement of [125I]Tyr11-somatostatin-14 from mouse SST receptor after 60 mins by scintillation counting analysis; assay type: protein assay
[12] = molecular target: Insulin-like growth factor 1 receptor (Homo sapiens) (UniProt P08069); experiment: Inhibition of recombinant His-tagged human IGF1R cytoplasmic domain (960 to […] residues) expressed in baculovirus expression system at 10 uM in presence of ATP relative to control
[13] = molecular target: Muscarinic acetylcholine receptor M1 (Homo sapiens) (UniProt P11229); experiment: Displacement of […] from human recombinant M1 receptor at 10 uM after 60 mins by scintillation counting analysis relative to control
[14] = molecular target: T2, Adenosine receptor A2a; experiment: Displacement of [3H]-CGS 21680 from human recombinant adenosine A2A receptor after 120 mins by scintillation counting analysis
[15] = molecular target: Adenosine receptor A3 (Homo sapiens, UniProt P0DMS8); experiment: Displacement of [125I]AB-MECA from human recombinant adenosine A3 receptor after 120 mins by scintillation counting analysis
[16] = Binding affinity to GABA-gated chloride channel (unknown origin) by antagonist radioligand binding assay; parameters: species or system Homo sapiens
[17] = molecular target: Aurora kinase B (Homo sapiens) (UniProt Q96GD4); experiment: Inhibition of recombinant full length His-tagged human Aurora B expressed in baculovirus expression system at 10 uM in presence of ATP relative to control
[18] = molecular target: 5-hydroxytryptamine receptor 2A (Homo sapiens, UniProt P28223); experiment: Displacement of [3H]ketanserin human recombinant 5-HT2A receptor at 1 uM after 60 mins by scintillation counting analysis relative to control
[19] = molecular target: Small conductance calcium-activated potassium channel (Rattus norvegicus) (UniProt P70604+P70606+P70605); experiment: Displacement of [125I]apamin from rat brain SkCa channel at 1 uM after 60 mins by scintillation counting analysis relative to control
[20] = molecular target: Kappa-type opioid receptor (Homo sapiens, UniProt P41145); experiment: Displacement of [3H]U69593 from human kappa receptor at 1 uM after 60 mins by scintillation counting analysis relative to control
[21] = Tmax in Sprague-Dawley rat at 5 mg/kg, po; assay type: ADME, organism-based; settings: in vivo
[22] = molecular target: 5-hydroxytryptamine receptor 3A (Homo sapiens) (UniProt P46098); experiment: Displacement of [3H]BRL 43694 from human recombinant 5-HT3 receptor at 10 uM after 120 mins by scintillation counting analysis relative to control
[23] = molecular target: Muscarinic acetylcholine receptor M1 (Homo sapiens) (UniProt P11229); experiment: Displacement of […] from human recombinant M1 receptor at 1 uM after 60 mins by scintillation counting analysis relative to control
[24] = Thermodynamic solubility of the compound in 30 mM phosphate buffer at 10 mM at pH 7 after 2 to 5 days by UV-HPLC analysis; assay type: physicochemical; settings: read-out: Therm_solubility
[25] = molecular target: D(1A) dopamine receptor (Homo sapiens, UniProt P21728); experiment: Displacement of [3H]-SCH 23390 from human recombinant dopamine D1 receptor at 1 uM after 60 mins by scintillation counting analysis relative to control
[26] = molecular target: Tyrosine-protein kinase JAK2 (Homo sapiens) (UniProt O60674); experiment: Inhibition of recombinant GST-tagged human JAK2 catalytic domain (809 to 1153 residues) expressed in baculovirus expression system at 10 uM in presence of ATP relative to control
[27] = molecular target: C-X-C chemokine receptor type 2 (Homo sapiens, UniProt P25025); experiment: Displacement of [125I]IL-8 from human recombinant CXCR2 receptor after 60 mins by scintillation counting analysis
[28] = Displacement of [3H]D 888 from rat brain L-type calcium channel verapamil binding site after 120 mins by scintillation counting analysis
[29] = molecular target: Adrenergic receptor alpha-1 (Rattus norvegicus, UniProt P15823+P23944+P43140); experiment: Displacement of [3H]-prazosin from rat alpha1 adrenoceptor after 60 mins by scintillation counting analysis; assay type: protein assay
[30] = molecular target: T1, Adrenergic receptor alpha-2 (Rattus norvegicus); experiment: Displacement of [3H]-RX 821002 from rat alpha2 adrenoceptor at 10 uM after 60 mins by scintillation counting analysis relative to control; assay type: protein assay
[31] = molecular target: Neuropeptide Y receptor type 1 (Homo sapiens) (UniProt P25929); experiment: Displacement of [125I]peptide YY from human Y1 receptor at 10 uM after 120 mins by scintillation counting analysis relative to control
[32] = molecular target: G protein-coupled receptor kinase 4 (Homo sapiens) (UniProt P32298); experiment: Inhibition of recombinant human full length GST-tagged GRK4 expressed in baculovirus expression system at 10 uM in presence of ATP relative to control

T2 sequence (P29274 whole entry): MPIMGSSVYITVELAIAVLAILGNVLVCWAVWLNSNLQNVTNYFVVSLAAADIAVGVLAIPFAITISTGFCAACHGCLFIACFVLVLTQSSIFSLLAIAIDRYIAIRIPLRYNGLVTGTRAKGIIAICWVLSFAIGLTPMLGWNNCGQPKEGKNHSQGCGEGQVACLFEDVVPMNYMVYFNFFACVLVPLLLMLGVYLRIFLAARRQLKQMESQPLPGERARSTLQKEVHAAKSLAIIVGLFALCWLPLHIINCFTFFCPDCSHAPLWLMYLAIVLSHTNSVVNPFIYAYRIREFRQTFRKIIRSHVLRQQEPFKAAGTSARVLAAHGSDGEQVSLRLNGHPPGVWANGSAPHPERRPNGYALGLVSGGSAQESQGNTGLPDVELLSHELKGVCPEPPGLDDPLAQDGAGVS
Chain of Muscarinic acetylcholine receptor M1 (Homo sapiens) (P11229 whole entry): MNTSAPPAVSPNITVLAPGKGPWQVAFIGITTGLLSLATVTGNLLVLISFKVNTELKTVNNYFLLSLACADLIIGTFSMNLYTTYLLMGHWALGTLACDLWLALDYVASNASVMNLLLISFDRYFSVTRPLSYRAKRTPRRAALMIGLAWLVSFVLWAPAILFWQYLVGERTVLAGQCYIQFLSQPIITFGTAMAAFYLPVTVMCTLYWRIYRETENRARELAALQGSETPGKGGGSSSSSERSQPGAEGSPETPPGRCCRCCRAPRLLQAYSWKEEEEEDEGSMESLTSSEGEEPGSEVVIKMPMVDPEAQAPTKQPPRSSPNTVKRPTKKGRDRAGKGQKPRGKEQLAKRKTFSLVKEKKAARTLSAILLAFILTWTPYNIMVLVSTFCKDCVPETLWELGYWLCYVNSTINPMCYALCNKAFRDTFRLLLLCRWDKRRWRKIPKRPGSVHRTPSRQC
Chain of Tyrosine-protein kinase JAK2 (Homo sapiens) (O60674 whole entry, the tested form may be a part): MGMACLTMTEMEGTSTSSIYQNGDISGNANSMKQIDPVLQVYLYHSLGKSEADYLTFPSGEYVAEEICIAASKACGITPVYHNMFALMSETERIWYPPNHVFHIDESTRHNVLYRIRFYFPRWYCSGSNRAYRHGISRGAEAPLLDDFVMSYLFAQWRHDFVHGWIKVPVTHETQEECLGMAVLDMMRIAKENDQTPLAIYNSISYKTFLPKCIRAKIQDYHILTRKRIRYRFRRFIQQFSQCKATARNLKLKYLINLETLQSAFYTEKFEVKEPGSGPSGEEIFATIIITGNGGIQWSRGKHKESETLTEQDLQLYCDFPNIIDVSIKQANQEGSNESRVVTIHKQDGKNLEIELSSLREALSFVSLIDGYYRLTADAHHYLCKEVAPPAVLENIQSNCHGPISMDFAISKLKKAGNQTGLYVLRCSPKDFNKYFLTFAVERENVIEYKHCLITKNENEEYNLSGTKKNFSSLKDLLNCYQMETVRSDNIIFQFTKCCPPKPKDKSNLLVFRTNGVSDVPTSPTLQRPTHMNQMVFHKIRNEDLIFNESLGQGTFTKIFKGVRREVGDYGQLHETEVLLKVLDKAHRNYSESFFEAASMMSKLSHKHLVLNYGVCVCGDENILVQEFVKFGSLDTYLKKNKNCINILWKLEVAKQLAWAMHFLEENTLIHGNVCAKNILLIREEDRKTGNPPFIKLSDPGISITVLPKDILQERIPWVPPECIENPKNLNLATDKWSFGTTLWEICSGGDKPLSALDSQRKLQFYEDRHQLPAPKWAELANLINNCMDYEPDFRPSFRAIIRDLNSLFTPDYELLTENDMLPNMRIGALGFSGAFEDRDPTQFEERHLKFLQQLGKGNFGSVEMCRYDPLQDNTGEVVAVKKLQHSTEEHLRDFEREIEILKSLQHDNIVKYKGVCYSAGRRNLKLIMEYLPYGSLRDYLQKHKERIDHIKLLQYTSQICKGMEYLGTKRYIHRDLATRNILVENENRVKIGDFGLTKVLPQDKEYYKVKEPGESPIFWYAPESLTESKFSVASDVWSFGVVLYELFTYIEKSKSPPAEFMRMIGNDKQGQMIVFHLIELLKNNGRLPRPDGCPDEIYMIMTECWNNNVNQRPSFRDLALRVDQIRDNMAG
Chain of Neuropeptide Y receptor type 1 (Homo sapiens) (P25929 whole entry): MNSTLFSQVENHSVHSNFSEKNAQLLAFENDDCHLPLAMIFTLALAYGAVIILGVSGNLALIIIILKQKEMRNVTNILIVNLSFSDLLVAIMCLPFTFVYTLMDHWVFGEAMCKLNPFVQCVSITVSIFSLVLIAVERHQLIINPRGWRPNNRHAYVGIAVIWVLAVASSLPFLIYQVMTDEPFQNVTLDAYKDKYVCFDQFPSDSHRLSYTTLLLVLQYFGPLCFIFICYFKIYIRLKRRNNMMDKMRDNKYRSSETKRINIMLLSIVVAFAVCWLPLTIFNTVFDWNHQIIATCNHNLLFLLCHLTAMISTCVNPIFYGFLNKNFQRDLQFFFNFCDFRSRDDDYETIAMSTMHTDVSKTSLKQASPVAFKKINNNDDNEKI
Chain of Neurotensin receptor type 1 (P30989 whole entry): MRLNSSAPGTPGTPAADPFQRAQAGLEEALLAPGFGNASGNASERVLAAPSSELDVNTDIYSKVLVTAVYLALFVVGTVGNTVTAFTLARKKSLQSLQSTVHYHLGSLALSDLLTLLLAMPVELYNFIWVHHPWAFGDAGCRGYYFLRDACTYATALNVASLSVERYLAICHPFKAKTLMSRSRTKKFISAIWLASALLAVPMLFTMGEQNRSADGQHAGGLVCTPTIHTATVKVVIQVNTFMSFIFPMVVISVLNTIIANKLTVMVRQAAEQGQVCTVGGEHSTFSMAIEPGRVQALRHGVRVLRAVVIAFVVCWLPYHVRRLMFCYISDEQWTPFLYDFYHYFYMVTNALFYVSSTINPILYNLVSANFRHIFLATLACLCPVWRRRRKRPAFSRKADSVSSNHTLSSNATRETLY
Chain of Neuromedin-K receptor (P29371 whole entry): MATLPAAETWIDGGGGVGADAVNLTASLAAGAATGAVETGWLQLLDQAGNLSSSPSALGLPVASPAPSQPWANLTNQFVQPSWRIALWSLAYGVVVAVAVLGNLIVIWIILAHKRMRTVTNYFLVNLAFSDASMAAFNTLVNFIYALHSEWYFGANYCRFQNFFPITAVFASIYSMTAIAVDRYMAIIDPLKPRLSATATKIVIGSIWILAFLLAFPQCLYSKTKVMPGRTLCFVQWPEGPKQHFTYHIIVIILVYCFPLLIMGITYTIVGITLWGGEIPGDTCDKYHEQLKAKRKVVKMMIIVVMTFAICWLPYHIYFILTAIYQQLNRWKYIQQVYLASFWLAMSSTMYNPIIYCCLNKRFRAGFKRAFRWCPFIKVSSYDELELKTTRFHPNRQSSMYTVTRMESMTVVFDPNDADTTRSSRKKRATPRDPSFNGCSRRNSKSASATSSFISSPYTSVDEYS
Chain of Inhibitor of nuclear factor kappa-B kinase subunit beta (Homo sapiens) (O14920 whole entry): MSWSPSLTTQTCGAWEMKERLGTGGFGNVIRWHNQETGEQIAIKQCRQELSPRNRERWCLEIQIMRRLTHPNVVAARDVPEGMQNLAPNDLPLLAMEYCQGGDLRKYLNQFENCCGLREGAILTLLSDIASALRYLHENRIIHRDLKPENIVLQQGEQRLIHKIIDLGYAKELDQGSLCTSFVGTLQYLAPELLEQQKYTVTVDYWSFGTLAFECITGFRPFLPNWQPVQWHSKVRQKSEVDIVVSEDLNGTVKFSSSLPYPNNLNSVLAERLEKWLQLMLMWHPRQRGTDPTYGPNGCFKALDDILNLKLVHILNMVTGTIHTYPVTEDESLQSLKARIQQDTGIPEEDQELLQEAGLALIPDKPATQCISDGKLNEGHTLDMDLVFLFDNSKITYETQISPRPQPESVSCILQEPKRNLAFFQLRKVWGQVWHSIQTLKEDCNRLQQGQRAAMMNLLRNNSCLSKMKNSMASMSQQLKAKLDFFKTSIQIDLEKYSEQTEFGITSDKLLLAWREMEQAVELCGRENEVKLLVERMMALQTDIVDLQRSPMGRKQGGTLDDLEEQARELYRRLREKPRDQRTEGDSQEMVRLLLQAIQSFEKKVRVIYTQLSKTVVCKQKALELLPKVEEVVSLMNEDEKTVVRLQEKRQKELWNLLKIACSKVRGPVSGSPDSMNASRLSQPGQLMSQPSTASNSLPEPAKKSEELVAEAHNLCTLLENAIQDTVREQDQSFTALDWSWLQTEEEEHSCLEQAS
Chain of C-X-C chemokine receptor type 2 (P25025 whole entry): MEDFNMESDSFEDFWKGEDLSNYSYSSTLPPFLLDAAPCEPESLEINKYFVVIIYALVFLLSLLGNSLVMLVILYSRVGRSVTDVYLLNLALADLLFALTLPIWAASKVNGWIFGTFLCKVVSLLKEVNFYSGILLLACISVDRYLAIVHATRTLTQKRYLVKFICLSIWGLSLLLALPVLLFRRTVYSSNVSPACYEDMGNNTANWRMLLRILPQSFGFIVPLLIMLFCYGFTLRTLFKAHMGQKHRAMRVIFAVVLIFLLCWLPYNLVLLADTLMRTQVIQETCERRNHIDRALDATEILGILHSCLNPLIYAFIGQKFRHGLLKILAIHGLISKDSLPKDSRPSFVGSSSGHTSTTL
Chain of Serine/threonine-protein kinase pim-2 (Homo sapiens) (Q9P1W9 whole entry, looked up): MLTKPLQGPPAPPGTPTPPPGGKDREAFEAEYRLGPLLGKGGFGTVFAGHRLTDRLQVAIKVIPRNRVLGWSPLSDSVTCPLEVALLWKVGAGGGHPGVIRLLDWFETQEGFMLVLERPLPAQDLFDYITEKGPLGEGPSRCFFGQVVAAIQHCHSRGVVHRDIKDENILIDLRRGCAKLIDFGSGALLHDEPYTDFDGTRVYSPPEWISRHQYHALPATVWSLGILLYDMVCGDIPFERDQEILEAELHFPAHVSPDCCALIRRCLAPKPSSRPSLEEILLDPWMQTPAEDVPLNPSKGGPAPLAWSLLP

## CC(C)(C)NS(=O)(=O)c1ccc(-c2sc(C(=O)N[C@H]3C[C@H](C(=O)O)C3)nc2CC2CCCCC2)c2ccccc12
[1]
  inhibition: < 10%
[2]
  inhibition: 11%
[3]
  AUC(0-inf): 325 ng·h/mL
[4]
  inhibition: 4%
[5]
  IC50: 8.2 nM
[6]
  inhibition: < 10%
[7]
  inhibition: -4%
[8]
  inhibition: < 10%
[9]
  solubility thermodynamic at 10000 µM: < 1 µM
[10]
  inhibition: 20%
[11]
  IC50: 0.31 nM
[12]
  inhibition: -10%
[13]
  inhibition: < 10%
[14]
  IC50: 9.2 nM
[15]
  IC50: 0.17 nM
[16]
  IC50: 220 nM
[17]
  inhibition: 8%
[18]
  inhibition: < 10%
[19]
  inhibition: < 10%
[20]
  inhibition: < 10%
[21]
  Tmax: 48 min
[22]
  inhibition: 12%
[23]
  inhibition: < 10%
[24]
  solubility thermodynamic at 10000 µM: < 1 µM
[25]
  inhibition: < 10%
[26]
  inhibition: 2%
[27]
  IC50: 0.24 nM
[28]
  IC50: 51 nM
[29]
  IC50: 0.25 nM
[30]
  inhibition: < 10%
[31]
  inhibition: < 10%
[32]
  inhibition: -3%

Reference: ChEMBL document CHEMBL4118122, “Identification and biological evaluation of thiazole-based inverse agonists of RORγt” (Bioorg Med Chem Lett, 2018)
